Data: PubChem BioAssay (NCI)
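Abbreviation: GI50, concentration required for 50% inhibition of growth. TGI: concentration producing complete growth inhibition.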

Legend:
Assay in all cases: inhibition of tumour cell growth, NCI panel, 384-well format
[1] = test system: NCI-H522 lung
[2] = test system: SK-OV-3 ovarian
[3] = test system: HT29 colon
[4] = test system: EKVX NSCLC
[5] = test system: K-562 leukemia
[6] = test system: A498 renal
[7] = test system: NCI/ADR-RES ovarian
[8] = test system: DU-145 prostate
[9] = test system: KM12 colon
[10] = test system: HL-60(TB) leukemia
[11] = test system: OVCAR-5 ovarian
[12] = test system: U251 glioblastoma
[13] = test system: HOP-92 NSCLC
[14] = test system: SK-MEL-28 melanoma
[15] = test system: MALME-3M melanoma
[16] = test system: NCI-H23 lung
[17] = test system: MDA-MB-468 breast
[18] = test system: UO-31 renal
[19] = test system: MOLT-4 leukemia
[20] = test system: ACHN renal
[21] = test system: HCC-2998 colon
[22] = test system: UACC-62 melanoma
[23] = test system: SR leukemia
[24] = test system: PC-3 prostate
[25] = test system: UACC-257 melanoma
[26] = test system: 786-0 renal
[27] = test system: M14 melanoma
[28] = test system: HOP-62 NSCLC
[29] = test system: T-47D breast
[30] = test system: OVCAR-8 ovarian
[31] = test system: MDA-MB-435 melanoma
[32] = test system: COLO 205 colon
[33] = test system: A549 NSCLC
[34] = test system: IGROV1 ovarian
[35] = test system: BT-549 breast
[36] = test system: MCF7 breast
[37] = test system: HCT-116 colon
[38] = test system: MDA-MB-231 breast
[39] = test system: RXF 393 renal
[40] = test system: OVCAR-4 ovarian
[41] = test system: NCI-H322M lung
[42] = test system: SK-MEL-2 melanoma
[43] = test system: LOX IMVI melanoma
[44] = test system: SK-MEL-5 melanoma
[45] = test system: RPMI-8226 leukemia
[46] = test system: HCT-15 colon
[47] = test system: SNB-75 CNS
[48] = test system: SN12C renal
[49] = test system: SF-539 CNS
[50] = test system: CCRF-CEM leukemia
[51] = test system: OVCAR-3 ovarian
[52] = test system: SW-620 colon
[53] = test system: SNB-19 CNS
[54] = test system: CAKI-1 renal
[55] = test system: NCI-H460 NSCLC
[56] = test system: TK-10 renal
[57] = test system: SF-295 CNS
[58] = test system: SF-268 CNS
[59] = test system: NCI-H226 lung

In the case of `C=CC(=O)Nc1cc(N2CCN(CC)CC2)ccc1Nc1cc(N(C)C(=O)Nc2c(Cl)c(OC)cc(OC)c2Cl)ncn1`, the GI50 [1] is reported as 1630 nM, the TGI [1] is reported as 3020 nM and the GI50 [2] is reported as 2510 nM. The TGI [2] was 6710 nM, the GI50 [3] was 1970 nM and the TGI [3] was 3960 nM. The GI50 [4] was 2340 nM, the TGI [4] was 5570 nM and the GI50 [5] was 1850 nM. It also gave a TGI [5] of 3400 nM, a GI50 [6] of 1720 nM and a TGI [6] of 3140 nM. The GI50 [7] was over 44600 nM, the TGI [7] was over 78500 nM and the GI50 [8] was 1910 nM. It also gave a TGI [8] of 3760 nM, a GI50 [9] of 1760 nM and a TGI [9] of 3230 nM. For the same compound, the GI50 [10] was 1940 nM, the TGI [10] was 3370 nM and the GI50 [11] was 7010 nM. It also gave a TGI [11] of 19000 nM, a GI50 [12] of 1890 nM and a TGI [12] of 3440 nM. For the same compound, the GI50 [13] was 1020 nM, the TGI [13] was 2770 nM and the GI50 [14] was 2050 nM. The TGI [14] was 4390 nM, the GI50 [15] was 1960 nM and the TGI [15] was 3470 nM. It also gave a GI50 [16] of 3680 nM, a TGI [16] of 10000 nM and a GI50 [17] of 785 nM. It also gave a TGI [17] of 2010 nM, a GI50 [18] of 2030 nM and a TGI [18] of 4080 nM. It also gave a GI50 [19] of 910 nM, a TGI [19] of 2210 nM and a GI50 [20] of 4550 nM. For the same compound, the TGI [20] was 10700 nM, the GI50 [21] was 1700 nM and the TGI [21] was 3080 nM. It also gave a GI50 [22] of 1560 nM, a TGI [22] of 3030 nM and a GI50 [23] of 922 nM. The TGI [23] was 2230 nM, the GI50 [24] was 1810 nM and the TGI [24] was 3270 nM. It also gave a GI50 [25] of 1420 nM, a TGI [25] of 2780 nM and a GI50 [26] of 1710 nM. The TGI [26] was 3140 nM, the GI50 [27] was 2380 nM and the TGI [27] was 5120 nM. For the same compound, the GI50 [28] was 2450 nM, the TGI [28] was 6360 nM and the GI50 [29] was 1310 nM. The TGI [29] was 2990 nM, the GI50 [30] was 1760 nM and the TGI [30] was 3310 nM. For the same compound, the GI50 [31] was 2560 nM, the TGI [31] was 5840 nM and the GI50 [32] was 2310 nM. The TGI [32] was 4240 nM, the GI50 [33] was 5630 nM and the TGI [33] was 13100 nM. For the same compound, the GI50 [34] was 1860 nM, the TGI [34] was 3660 nM and the GI50 [35] was 1400 nM. For the same compound, the TGI [35] was 2730 nM, the GI50 [36] was 1750 nM and the TGI [36] was 6280 nM. It also gave a GI50 [37] of 1880 nM, a TGI [37] of 3460 nM and a GI50 [38] of 1670 nM. The TGI [38] was 3310 nM, the GI50 [39] was 680 nM and the TGI [39] was 2190 nM. It also gave a GI50 [40] of 2030 nM, a TGI [40] of 6620 nM and a GI50 [41] of 10500 nM. The TGI [41] was 31000 nM, the GI50 [42] was 1210 nM and the TGI [42] was 2460 nM. For the same compound, the GI50 [43] was 1870 nM, the TGI [43] was 3280 nM and the GI50 [44] was 1800 nM. It also gave a TGI [44] of 3430 nM, a GI50 [45] of 605 nM and a TGI [45] of 1520 nM. For the same compound, the GI50 [46] was 2830 nM, the TGI [46] was 6990 nM and the GI50 [47] was 1980 nM. The TGI [47] was 4310 nM, the GI50 [48] was 2010 nM and the TGI [48] was 3740 nM. For the same compound, the GI50 [49] was 1580 nM, the TGI [49] was 2950 nM and the GI50 [50] was 1560 nM. For the same compound, the TGI [50] was 2920 nM, the GI50 [51] was 1400 nM and the TGI [51] was 2850 nM. For the same compound, the GI50 [52] was 1770 nM, the TGI [52] was 3180 nM and the GI50 [53] was 2890 nM. For the same compound, the TGI [53] was 7710 nM, the GI50 [54] was 2640 nM and the TGI [54] was 7010 nM. The GI50 [55] was 1730 nM, the TGI [55] was 3180 nM and the GI50 [56] was 2180 nM. The TGI [56] was 5020 nM, the GI50 [57] was 15800 nM and the TGI [57] was 29400 nM. For the same compound, the GI50 [58] was 1880 nM, the TGI [58] was 3960 nM and the GI50 [59] was 1840 nM. For the same compound, the TGI [59] was 4390 nM.
